Laboratory results from paper PMC9229919, “4-Aminoquinoline-Based Adamantanes as Potential Anticholinesterase Agents in Symptomatic Treatment of Alzheimer’s Disease” (Pharmaceutics, 2022).
Read-outs that look alike come from different tables or passages of the source.

Columns and labels:
purified human BChE = molecular target: T1, purified human BChE (Homo sapiens, UniProt P06276); experiment: biochemical; format: biochemical
T1 construct: possibly also a gift of Dr Florian Nachon (the sentence is ambiguous)
In short: (§1)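 Modified Ellman assay with acetylthiocholine and DTNB in 0.1 M sodium phosphate pH 7.4 (enzymes diluted with 0.1% BSA), ≤0.2% DMSO, 25 °C. At least three inhibitor concentrations per substrate level; Ki,app from Hunter–Downs equation, Ki from y-intercept and inhibition type from Ki,app vs [S].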

recombinant human AChE = molecular target: T2, recombinant human AChE (Homo sapiens, UniProt P22303); experiment: biochemical; format: biochemical; settings: for IS: IS = Ki(BChE)/Ki(AChE), IS > 1 selective to AChE
T2 construct: gift of Dr Florian Nachon (Armed Forces Biomedical Research Institute, Brétigny-sur-Orge, France)
In short: as §1

[1] = Ferric reducing antioxidant power (FRAP) assay; settings: mean ± standard error of three experiments;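 further: expressed as µM Fe2+ equivalents from an FeSO4·7H2O standard curve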
In short: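 Ferric-TPTZ reduction measured by absorbance at 593 nm after 60 min at 37 °C in pH 3.6 acetate-buffered TPTZ/FeCl3 reagent, with test compounds at 10 and 100 µM. FRAP values calculated from an Fe2SO4·7H2O standard curve. Data from three independent experiments.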

[2] = Reverse-phase thin-layer chromatographic lipophilicity (RF, RM0); format: physicochemical; settings: for RM0: intercept of RM = RM0 + bC; for b: slope of RM = RM0 + bC; for RF, Methanol/Water/Hydrochloric acid (conc.), mobile phase I / RF, Dioxane/Water/Hydrochloric acid (conc.), mobile phase II / RF, Methanol/Water/Hydrochloric acid (conc.), mobile phase II / RF, Acetone/Water/Hydrochloric acid (conc.), mobile phase III / RF, Dioxane/Water/Hydrochloric acid (conc.), mobile phase III / RF, Methanol/Water/Hydrochloric acid (conc.), mobile phase III / RF, Dioxane/Water/Hydrochloric acid (conc.), mobile phase IV / RF, Acetone/Water/Hydrochloric acid (conc.), mobile phase IV / RF, Methanol/Water/Hydrochloric acid (conc.), mobile phase IV / RF, Acetone/Water/Hydrochloric acid (conc.), mobile phase IX / RF, Methanol/Water/Hydrochloric acid (conc.), mobile phase IX / RF, Dioxane/Water/Hydrochloric acid (conc.), mobile phase V / RF, Acetone/Water/Hydrochloric acid (conc.), mobile phase V / RF, Methanol/Water/Hydrochloric acid (conc.), mobile phase V / RF, Dioxane/Water/Hydrochloric acid (conc.), mobile phase VI / RF, Acetone/Water/Hydrochloric acid (conc.), mobile phase VI / RF, Methanol/Water/Hydrochloric acid (conc.), mobile phase VI / RF, Acetone/Water/Hydrochloric acid (conc.), mobile phase VII / RF, Methanol/Water/Hydrochloric acid (conc.), mobile phase VII / RF, Acetone/Water/Hydrochloric acid (conc.), mobile phase VIII / RF, Methanol/Water/Hydrochloric acid (conc.), mobile phase VIII: RP-18 silica; for RF, Methanol/Water/Hydrochloric acid (conc.), mobile phase I: I = 90%MeOH/5%H2O/5%HCl; for RF, Dioxane/Water/Hydrochloric acid (conc.), mobile phase II: II = 80%Dioxane/15%H2O/5%HCl; for RF, Methanol/Water/Hydrochloric acid (conc.), mobile phase II: II = 85%MeOH/10%H2O/5%HCl; for RF, Acetone/Water/Hydrochloric acid (conc.), mobile phase III: III = 70%AC/25%H2O/5%HCl; for RF, Dioxane/Water/Hydrochloric acid (conc.), mobile phase III: III = 70%Dioxane/25%H2O/5%HCl; for RF, Methanol/Water/Hydrochloric acid (conc.), mobile phase III: III = 80%MeOH/15%H2O/5%HCl; for RF, Dioxane/Water/Hydrochloric acid (conc.), mobile phase IV: IV = 60%Dioxane/35%H2O/5%HCl; for RF, Acetone/Water/Hydrochloric acid (conc.), mobile phase IV: IV = 65%AC/30%H2O/5%HCl; for RF, Methanol/Water/Hydrochloric acid (conc.), mobile phase IV: IV = 75%MeOH/20%H2O/5%HCl; for RF, Acetone/Water/Hydrochloric acid (conc.), mobile phase IX: IX = 40%AC/55%H2O/5%HCl; for RF, Methanol/Water/Hydrochloric acid (conc.), mobile phase IX: IX = 50%MeOH/45%H2O/5%HCl; for RF, Dioxane/Water/Hydrochloric acid (conc.), mobile phase V: V = 50%Dioxane/45%H2O/5%HCl; for RF, Acetone/Water/Hydrochloric acid (conc.), mobile phase V: V = 60%AC/35%H2O/5%HCl; for RF, Methanol/Water/Hydrochloric acid (conc.), mobile phase V: V = 70%MeOH/25%H2O/5%HCl; for RF, Dioxane/Water/Hydrochloric acid (conc.), mobile phase VI: VI = 40%Dioxane/55%H2O/5%HCl; for RF, Acetone/Water/Hydrochloric acid (conc.), mobile phase VI: VI = 55%AC/40%H2O/5%HCl; for RF, Methanol/Water/Hydrochloric acid (conc.), mobile phase VI: VI = 65%MeOH/30%H2O/5%HCl; for RF, Acetone/Water/Hydrochloric acid (conc.), mobile phase VII: VII = 50%AC/45%H2O/5%HCl; for RF, Methanol/Water/Hydrochloric acid (conc.), mobile phase VII: VII = 60%MeOH/35%H2O/5%HCl; for RF, Acetone/Water/Hydrochloric acid (conc.), mobile phase VIII: VIII = 45%AC/50%H2O/5%HCl; for RF, Methanol/Water/Hydrochloric acid (conc.), mobile phase VIII: VIII = 55%MeOH/40%H2O/5%HCl
In short: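 Lipophilicity from RP-TLC retention at 22±2 °C over a 4.5 cm development distance. Eluents: organic modifier (methanol, acetone or dioxane), water and hydrochloric acid, methanol stepped by 10%. RM0 obtained from RF.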

[3] = ± standard error, 25 °C, ATCh substrate, read-out: Ki BChE
[4] = ± standard error, 25 °C, ATCh substrate, read-out: Ki AChE
[5] = Acetone/Water/Hydrochloric acid (conc.)
[6] = Dioxane/Water/Hydrochloric acid (conc.)
[7] = Methanol/Water/Hydrochloric acid (conc.)

T2 sequence (P22303 32-614): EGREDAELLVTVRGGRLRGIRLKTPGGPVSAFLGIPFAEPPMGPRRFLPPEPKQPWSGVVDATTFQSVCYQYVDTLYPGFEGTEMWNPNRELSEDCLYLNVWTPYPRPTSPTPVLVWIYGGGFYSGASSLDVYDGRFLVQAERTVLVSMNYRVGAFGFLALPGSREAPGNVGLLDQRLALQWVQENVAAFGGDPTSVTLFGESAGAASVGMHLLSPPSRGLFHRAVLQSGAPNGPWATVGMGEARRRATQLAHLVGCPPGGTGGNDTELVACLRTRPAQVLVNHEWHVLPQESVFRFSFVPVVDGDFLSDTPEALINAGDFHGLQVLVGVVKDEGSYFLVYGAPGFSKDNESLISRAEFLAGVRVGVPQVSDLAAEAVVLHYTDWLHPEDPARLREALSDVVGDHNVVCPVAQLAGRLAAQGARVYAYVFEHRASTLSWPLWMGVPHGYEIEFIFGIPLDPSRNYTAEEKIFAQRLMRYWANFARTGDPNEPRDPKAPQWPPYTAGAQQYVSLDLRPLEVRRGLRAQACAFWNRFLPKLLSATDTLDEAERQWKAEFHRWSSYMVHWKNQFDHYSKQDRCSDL
T1 sequence (P06276 29-602): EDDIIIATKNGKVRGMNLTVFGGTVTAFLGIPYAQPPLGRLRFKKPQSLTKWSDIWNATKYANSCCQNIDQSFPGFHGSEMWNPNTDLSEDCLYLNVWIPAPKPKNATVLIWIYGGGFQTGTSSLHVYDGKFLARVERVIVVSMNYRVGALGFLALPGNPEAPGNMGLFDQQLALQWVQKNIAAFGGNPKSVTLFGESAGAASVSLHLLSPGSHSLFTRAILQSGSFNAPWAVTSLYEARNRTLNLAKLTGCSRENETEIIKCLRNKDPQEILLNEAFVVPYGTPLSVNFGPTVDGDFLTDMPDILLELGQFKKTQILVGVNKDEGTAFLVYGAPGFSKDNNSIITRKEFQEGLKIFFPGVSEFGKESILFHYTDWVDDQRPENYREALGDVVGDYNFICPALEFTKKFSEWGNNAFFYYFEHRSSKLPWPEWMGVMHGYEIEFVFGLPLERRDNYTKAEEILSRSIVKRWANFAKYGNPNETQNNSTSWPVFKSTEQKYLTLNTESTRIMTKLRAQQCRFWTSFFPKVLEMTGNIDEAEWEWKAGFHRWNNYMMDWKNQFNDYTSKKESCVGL

Row | Compound | Ki (purified human BChE; [3]) [µM] | IS (recombinant human AChE) | Ki (recombinant human AChE; [4]) [µM] | FRAP ([1]; 10 µM compound) [µM] | FRAP ([1]; 100 µM compound) [µM] | RM0 [2, 5] | b [2, 5] | RM0 [2, 6] | b [2, 6] | RM0 [2, 7] | b [2, 7] | RF, Methanol/Water/Hydrochloric acid (conc.), mobile phase I [2] | RF, Dioxane/Water/Hydrochloric acid (conc.), mobile phase II [2] | RF, Methanol/Water/Hydrochloric acid (conc.), mobile phase II [2] | RF, Acetone/Water/Hydrochloric acid (conc.), mobile phase III [2] | RF, Dioxane/Water/Hydrochloric acid (conc.), mobile phase III [2] | RF, Methanol/Water/Hydrochloric acid (conc.), mobile phase III [2] | RF, Dioxane/Water/Hydrochloric acid (conc.), mobile phase IV [2] | RF, Acetone/Water/Hydrochloric acid (conc.), mobile phase IV [2] | RF, Methanol/Water/Hydrochloric acid (conc.), mobile phase IV [2] | also measured
1 | Clc1ccc2c(N3CCN(CCC45CC6CC(CC(C6)C4)C5)CC3)ccnc2c1 [Compound 21] | 5.6 ± 0.6 | 2.7 | 2.1 ± 0.4 | 6.0 ± 2.0 | 15 ± 5 | 1.611 | 2.562 | 0.7539 | 1.607 | 2.219 | 2.906 | 0.68 | 0.73 | 0.65 | 0.59 | 0.71 | 0.51 | 0.71 | 0.53 | 0.51 | Ki (purified human BChE; logarithm of Ki in µM, BChE, dependent variable of the QSAR model, read-out: Y Measured 2 log(ki)Bche, log (Ki/µM BChE) (converted)): 5.6 µM; Ki (recombinant human AChE; log (Ki/µM AChE), read-out: Y Measured 1 log(ki)Ache (converted)): 2.1 µM; RF, Acetone/Water/Hydrochloric acid (conc.), mobile phase IX [2]: 0.17; RF, Methanol/Water/Hydrochloric acid (conc.), mobile phase IX [2]: 0.12; RF, Dioxane/Water/Hydrochloric acid (conc.), mobile phase V [2]: 0.52; RF, Acetone/Water/Hydrochloric acid (conc.), mobile phase V [2]: 0.44; RF, Methanol/Water/Hydrochloric acid (conc.), mobile phase V [2]: 0.45; RF, Dioxane/Water/Hydrochloric acid (conc.), mobile phase VI [2]: 0.39; RF, Acetone/Water/Hydrochloric acid (conc.), mobile phase VI [2]: 0.4; RF, Methanol/Water/Hydrochloric acid (conc.), mobile phase VI [2]: 0.36; RF, Acetone/Water/Hydrochloric acid (conc.), mobile phase VII [2]: 0.35; RF, Methanol/Water/Hydrochloric acid (conc.), mobile phase VII [2]: 0.27; RF, Acetone/Water/Hydrochloric acid (conc.), mobile phase VIII [2]: 0.29; RF, Methanol/Water/Hydrochloric acid (conc.), mobile phase VIII [2]: 0.18
2 | CC(CCNCCC12CC3CC(CC(C3)C1)C2)Nc1ccnc2cc(Cl)ccc12 (stereo not shown) [Compound 14] | 0.15 ± 0.01 | 0.1 | 1.9 ± 0.1 | 7.6 ± 2.3 | 86 ± 8 | 2.236 | 3.396 | 1.306 | 2.3979 | 3.293 | 4.124 | 0.67 | 0.78 | 0.62 | 0.53 | 0.69 | 0.45 | 0.66 | 0.5 | 0.42 | preference for BChE (purified human BChE; BChE over AChE): 10 times; RF, Acetone/Water/Hydrochloric acid (conc.), mobile phase IX [2]: 0.08; RF, Methanol/Water/Hydrochloric acid (conc.), mobile phase IX [2]: 0.03; RF, Dioxane/Water/Hydrochloric acid (conc.), mobile phase V [2]: 0.45; RF, Acetone/Water/Hydrochloric acid (conc.), mobile phase V [2]: 0.38; RF, Methanol/Water/Hydrochloric acid (conc.), mobile phase V [2]: 0.34; RF, Dioxane/Water/Hydrochloric acid (conc.), mobile phase VI [2]: 0.27; RF, Acetone/Water/Hydrochloric acid (conc.), mobile phase VI [2]: 0.33; RF, Methanol/Water/Hydrochloric acid (conc.), mobile phase VI [2]: 0.25; RF, Acetone/Water/Hydrochloric acid (conc.), mobile phase VII [2]: 0.25; RF, Methanol/Water/Hydrochloric acid (conc.), mobile phase VII [2]: 0.16; RF, Acetone/Water/Hydrochloric acid (conc.), mobile phase VIII [2]: 0.21; RF, Methanol/Water/Hydrochloric acid (conc.), mobile phase VIII [2]: 0.1
